According to patent US20260103465A1, “GLYCOGEN SYNTHASE KINASE 3 INHIBITORS AND USES THEREOF” (The Broad Institute, Inc., priority 2023, published 2026):
Where two headings read alike, the source gives them in different places.

Key:
[1] = biological target: T1, GSK3a (GST-full length GSK3a) (Homo sapiens, UniProt P49840); assay: GSK3a TR-FRET kinase inhibition assay; type: biochemical
T1 construct: GST-full length GSK3a [SignalChem G08-10G]; purchased SignalChem G08-10G
In short: (§1)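 IC50 derived from normalized 665/615 TR-FRET signal (Tb anti-pSer641 antibody, streptavidin-d2), read after EDTA stop. Reaction: 1 nM GST-full-length enzyme, 30 min compound pre-incubation, 100 min at ambient temperature in Tris pH 7.5 with 1% DMSO, 200 nM biotinylated primed glycogen synthase peptide, ATP 2 μM to 1 mM.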

[2] = biological target: T2, GSK3b (GST-full length GSK3b) (Homo sapiens, UniProt P49841); assay: GSK3b TR-FRET kinase inhibition assay; type: biochemical
T2 construct: GST-full length GSK3b: [SignalChem G08-9G]; purchased SignalChem G08-9G
In short: as §1

[3] = 1 mM ATP, Table 5, read-out: GSK3α TR-FRET 1 mM ATP Average IC50
[4] = 1 mM ATP, Table 5, read-out: GSK3β TR-FRET 1 mM ATP Average IC50
[5] = 100 μM ATP, read-out: GSK3a 100 μM ATP Average IC50
[6] = 1 mM ATP, Table 3, read-out: GSK3a TR-FRET 1 mM ATP Average IC50
[7] = 100 μM ATP, read-out: GSK3b 100 μM ATP Average IC50
[8] = 1 mM ATP, Table 3, read-out: GSK3b TR-FRET 1 mM ATP Average IC50
[9] = 4 μM ATP, read-out: GSK3α TR-FRET 4 μM ATP GMean IC50
[10] = 2 μM ATP, read-out: GSK3β TR-FRET 2 μM ATP GMean IC50

T1 sequence (P49840 whole entry): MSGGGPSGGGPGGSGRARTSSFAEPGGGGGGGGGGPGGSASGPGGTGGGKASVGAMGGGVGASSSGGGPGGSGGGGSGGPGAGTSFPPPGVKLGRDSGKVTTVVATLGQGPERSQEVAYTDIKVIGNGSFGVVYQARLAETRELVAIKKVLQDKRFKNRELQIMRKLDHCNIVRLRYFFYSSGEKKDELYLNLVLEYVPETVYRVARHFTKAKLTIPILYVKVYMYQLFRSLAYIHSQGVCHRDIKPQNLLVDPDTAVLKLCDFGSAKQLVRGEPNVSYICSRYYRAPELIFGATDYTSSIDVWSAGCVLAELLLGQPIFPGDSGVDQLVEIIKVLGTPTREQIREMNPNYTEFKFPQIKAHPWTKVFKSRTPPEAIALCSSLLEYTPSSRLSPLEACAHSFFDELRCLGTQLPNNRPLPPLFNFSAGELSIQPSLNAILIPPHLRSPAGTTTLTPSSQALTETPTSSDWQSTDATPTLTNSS
T2 sequence (P49841 whole entry): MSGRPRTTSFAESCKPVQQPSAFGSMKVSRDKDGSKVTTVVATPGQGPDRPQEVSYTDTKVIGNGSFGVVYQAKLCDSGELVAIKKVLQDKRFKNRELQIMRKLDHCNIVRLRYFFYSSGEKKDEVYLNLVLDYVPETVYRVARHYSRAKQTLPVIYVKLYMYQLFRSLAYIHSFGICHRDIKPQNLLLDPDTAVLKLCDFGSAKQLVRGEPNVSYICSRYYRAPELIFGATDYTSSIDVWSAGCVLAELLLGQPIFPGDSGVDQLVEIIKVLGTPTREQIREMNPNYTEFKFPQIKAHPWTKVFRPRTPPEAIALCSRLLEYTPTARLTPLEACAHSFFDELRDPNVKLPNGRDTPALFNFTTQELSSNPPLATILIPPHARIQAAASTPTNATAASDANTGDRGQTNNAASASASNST

An IC50 [1, 3] of 5 to 20 µM and an IC50 [2, 4] of 1 to 5 µM were found for `COc1cnc2c(c1C1CC1)C(C)(c1ccccc1)C1=C(CC(C)(C)CC1=O)N2` (single isomer, unassigned) [626B] in this work.
In the case of `Cc1ccnc2c1C(C)(c1ccccc1)C1=C(CC(C)(C)CC1=O)N2` (single isomer, unassigned) [Compound 104A], the IC50 [1, 5] is reported as ≤ 0.1 µM, the IC50 [1, 6] is reported as 1 to 5 µM and the IC50 [2, 7] is reported as 0.1 to 1 µM. It also gave an IC50 [2, 8] of 1 to 5 µM.
An IC50 [1, 6] of 1 to 5 µM and an IC50 [2, 8] of 1 to 5 µM were found for `CC1(C)CC(=O)C2=C(C1)Nc1nccc(CC(F)(F)F)c1C2(C)c1ccccc1` (single isomer, unassigned) [Compound 132A] in this work.
An IC50 [1, 6] of 1 to 5 µM and an IC50 [2, 8] of 5 to 20 µM were found for `CC1(C)CC(=O)C2=C(C1)Nc1ncccc1C2(C)c1cccc(-c2ccncc2C(C)(C)C)c1` (single isomer, unassigned) [Compound 152A] in this work.
In the case of `CCC1(c2cccc(-c3cn(C)nc3C)c2)C2=C(CC(C)(C)CC2=O)Nc2ncc(F)cc21` (single isomer, unassigned) [Compound 1032A], the IC50 [1, 9] is reported as ≤ 0.1 µM and the IC50 [2, 10] is reported as 0.1 to 1 µM.
In the case of `CC1(C)CC(=O)C2=C(C1)Nc1ncccc1C2(C)c1cccc(N(CC2CC2)c2ncccn2)c1` (single isomer, unassigned) [652B], the IC50 [1, 3] is reported as ≤ 0.1 µM and the IC50 [2, 4] is reported as 5 to 20 µM.
With `CC1(C)CC2=C(C(=O)N1)C(C)(c1cccc(S(C)(=O)=O)c1)c1cc(F)cnc1N2` (single isomer, unassigned) [638A] the IC50 [1, 3] was ≤ 0.1 µM and the IC50 [2, 4] was 0.1 to 1 µM.
With `CCC1(c2cccc(C3CCC3)c2)C2=C(CC(C)(C)CC2=O)Nc2ncccc21` (racemic) [Compound 1012] the IC50 [1, 9] was ≤ 0.1 µM and the IC50 [2, 10] was ≤ 0.1 µM.
An IC50 [1, 3] of 5 to 20 µM and an IC50 [2, 4] of 5 to 20 µM were found for `Cn1ncc2c3c(ncc21)NC1=C(C(=O)CC(C)(C)C1)C3(C)c1ccccc1` (single isomer, unassigned) [609A] in this work.
An IC50 [1, 6] of 5 to 20 µM and an IC50 [2, 8] of 5 to 20 µM were found for `COc1cncc(F)c1-c1cccc(C2(C)C3=C(CC(C)(C)CC3=O)Nc3ncc(C)cc32)c1` (single isomer, unassigned) [Compound 155B] in this work.
An IC50 [1, 3] of 1 to 5 µM and an IC50 [2, 4] of 0.1 to 1 µM were found for `CC(C)Oc1cccc(C2(C)C3=C(CC(C)(C)CC3=O)Nc3ncc(C(F)(F)F)cc32)c1` (single isomer, unassigned) [648B] in this work.
An IC50 [1, 3] of 0.1 to 1 µM and an IC50 [2, 4] of 0.1 to 1 µM were found for `CC1(C)CC(=O)C2=C(C1)Nc1ncc(C#N)c(C#N)c1C2(C)c1ccccc1` (single isomer, unassigned) [605A] in this work.
An IC50 [1, 3] of 1 to 5 µM and an IC50 [2, 4] of 0.1 to 1 µM were found for `CC1(C)CC(=O)C2=C(Nc3ncc(C(F)F)c(C#N)c3[C@@]2(C)c2ccccc2)[C@@H]1F` (single isomer, unassigned) [Compound 633B] in this work.
With `CCC1(c2cccc(-c3ccncc3)c2)C2=C(CC(C)(C)CC2=O)Nc2ncccc21` (single isomer, unassigned) [Compound 1017B] the IC50 [1, 9] was > 5 µM and the IC50 [2, 10] was > 5 µM.
An IC50 [1, 3] of 5 to 20 µM and an IC50 [2, 4] of 5 to 20 µM were found for `Cn1ncc2c3c(ncc21)NC1=C(C(=O)CC(C)(C)C1)C3(C)c1cccc(S(C)(=O)=O)c1` (single isomer, unassigned) [649B] in this work.
An IC50 [1, 3] of 1 to 5 µM and an IC50 [2, 4] of 0.1 to 1 µM were found for `C=Cc1c(C(F)(F)F)cnc2c1C(C)(c1ccccc1)C1=C(CC(C)(C)CC1=O)N2` (single isomer, unassigned) [636A] in this work.
`COc1cncc(F)c1-c1cccc(C2(C)C3=C(CC(C)(C)CC3=O)Nc3ncc(F)cc32)c1` (single isomer, unassigned) [Compound 156A] was tested, and the IC50 [1, 6] was ≤ 0.1 µM and the IC50 [2, 8] was 0.1 to 1 µM.
An IC50 [1, 3] of 0.1 to 1 µM and an IC50 [2, 4] of 0.1 to 1 µM were found for `CC1(C)CC(=O)C2=C(C1)Nc1ncc(F)c(C#N)c1C2(C)c1cccc(-c2ccncc2CC(F)(F)F)c1` (single isomer, unassigned) [656A] in this work.
In the case of `CCC1(c2ccccc2)C2=C(CC3(CCC3)CC2=O)Nc2ncccc21` (single isomer, unassigned) [110 B], the IC50 [1, 9] is reported as > 5 µM and the IC50 [2, 10] is reported as > 5 µM.
An IC50 [1, 9] of 0.1 to 1 µM and an IC50 [2, 10] of 1 to 5 µM were found for `CCC1(c2ccccc2)C2=C(CC(C)(C)CC2=O)Nc2ncc(F)cc21` (single isomer, unassigned) [114 B] in this work.
An IC50 ([1]; 10 μM ATP, read-out: GSK3a 10 μM ATP Average IC50) of 5 to 20 µM, an IC50 [1, 5] of 20 to 60 µM and an IC50 ([2]; 10 μM ATP, read-out: GSK3b 10 μM ATP Average IC50) of 1 to 5 µM were found for `CC1(C)CC(=O)C2=C(C1)Nc1ncccc1C2(C)c1ccccc1` (single isomer, unassigned) [Compound 101B] in this work. It also gave an IC50 [2, 7] of 20 to 60 µM.
An IC50 [1, 6] of 1 to 5 µM and an IC50 [2, 8] of 1 to 5 µM were found for `CC1(C)CC(=O)C2=C(C1)Nc1ncc(F)c(C#N)c1C2(C)c1ccccc1` (single isomer, unassigned) [Compound 121B] in this work.
An IC50 [1, 3] of 5 to 20 µM and an IC50 [2, 4] of 5 to 20 µM were found for `CC1(C)CC(=O)C2=C(Nc3ncc(F)c(C#N)c3[C@]2(C)c2ccccc2)[C@@H]1F` (single isomer, unassigned) [Compound 617C] in this work.
An IC50 [1, 3] of 5 to 20 µM and an IC50 [2, 4] of 5 to 20 µM were found for `CC1(C)CC(=O)C2=C(C1)Nc1ncc3ccccc3c1C2(C)c1ccccc1` (single isomer, unassigned) [606A] in this work.
An IC50 [1, 3] of 5 to 20 µM and an IC50 [2, 4] of 5 to 20 µM were found for `CC1(C)CC(=O)C2=C(C1)Nc1ncc(C(C)(F)F)c(C#N)c1C2(C)c1ccccc1` (single isomer, unassigned) [631A] in this work.
With `CC1(C)CC(=O)C2=C(C1)Nc1ncc(F)c(C#N)c1C2(C)c1cccc(-c2ccncc2CC(F)(F)F)c1` (single isomer, unassigned) [656B] the IC50 [1, 3] was ≤ 0.1 µM and the IC50 [2, 4] was ≤ 0.1 µM.
In the case of `CCC1(c2cccc(-c3ccnn3C)c2)C2=C(CC(C)(C)CC2=O)Nc2ncccc21` (single isomer, unassigned) [Compound 1019B], the IC50 [1, 9] is reported as > 5 µM and the IC50 [2, 10] is reported as > 5 µM.
An IC50 [1, 3] of 0.1 to 1 µM and an IC50 [2, 4] of 0.1 to 1 µM were found for `CC1(C)CC(=O)C2=C(Nc3ncc(F)c(C#N)c3[C@@]2(C)c2ccccc2)[C@H]1F` (single isomer, unassigned) [Compound 617D] in this work.
An IC50 [1, 3] of 5 to 20 µM and an IC50 [2, 4] of 5 to 20 µM were found for `CC1(C)CC(=O)C2=C(C1)Nc1ncc(C#N)c(C#N)c1C2(C)c1ccccc1` (single isomer, unassigned) [605B] in this work.
An IC50 [1, 6] of 5 to 20 µM and an IC50 [2, 8] of 1 to 5 µM were found for `CC1(C)CC(=O)C2=C(C1)Nc1nccc(CC(F)(F)F)c1C2(C)c1ccccc1` (single isomer, unassigned) [Compound 132B] in this work.
An IC50 [1, 6] of 0.1 to 1 µM and an IC50 [2, 8] of 0.1 to 1 µM were found for `CC(C)(C)Cn1nccc1-c1cccc(C2(C)C3=C(CC(C)(C)CC3=O)Nc3ncc(F)cc32)c1` (single isomer, unassigned) [Compound 160A] in this work.
An IC50 [1, 5] of 0.1 to 1 µM, an IC50 [1, 6] of 5 to 20 µM and an IC50 [2, 7] of 0.1 to 1 µM were found for `CC1(C)CC(=O)C2=C(C1)Nc1ncc(C3CC3)cc1C2(C)c1ccccc1` (single isomer, unassigned) [Compound 117A] in this work. It also gave an IC50 [2, 8] of 1 to 5 µM.
An IC50 [1, 6] of 5 to 20 µM and an IC50 [2, 8] of 1 to 5 µM were found for `CC1(C)CC(=O)C2=C(C1)Nc1ncc(C(F)(F)F)c(Cl)c1C2(C)c1ccccc1` (single isomer, unassigned) [Compound 141A] in this work.
With `CCC1(c2cccc(C(F)(F)F)c2)C2=C(CC(C)(C)CC2=O)Nc2ncccc21` (single isomer, unassigned) [Compound 1014B] the IC50 [1, 9] was ≤ 0.1 µM and the IC50 [2, 10] was 0.1 to 1 µM.
An IC50 [1, 3] of 5 to 20 µM and an IC50 [2, 4] of 5 to 20 µM were found for `COc1cnc2c(c1C#N)C(C)(c1ccccc1)C1=C(CC(C)(C)CC1=O)N2` (single isomer, unassigned) [612B] in this work.
An IC50 [1, 3] of 5 to 20 µM and an IC50 [2, 4] of 1 to 5 µM were found for `CC(C)Oc1cccc(C2(C)C3=C(CC(C)(C)CC3=O)Nc3ncc4c(cnn4C)c32)c1` (single isomer, unassigned) [645B] in this work.
An IC50 [1, 6] of 0.1 to 1 µM and an IC50 [2, 8] of 0.1 to 1 µM were found for `COc1cncc(F)c1-c1cccc(C2(C)C3=C(CC(C)(C)CC3=O)Nc3ncc(C4CC4)cc32)c1` (single isomer, unassigned) [Compound 167A] in this work.
An IC50 [1, 5] of 5 to 20 µM, an IC50 [1, 6] of 5 to 20 µM and an IC50 [2, 7] of 5 to 20 µM were found for `CC1(C)CC(=O)C2=C(C1)Nc1ncc(C(C)(C)C)cc1C2(C)c1ccccc1` (single isomer, unassigned) [Compound 124A] in this work. It also gave an IC50 [2, 8] of 5 to 20 µM.
An IC50 [1, 3] of 1 to 5 µM and an IC50 [2, 4] of 1 to 5 µM were found for `CC1(C)CC(=O)C2=C(C1)Nc1ncc(F)cc1C2(C)c1cccc(-c2ccncc2CC(F)(F)F)c1` (single isomer, unassigned) [653A] in this work.
In the case of `CCC1(c2cccc(-c3cc(C)ncc3C)c2)C2=C(CC(C)(C)CC2=O)Nc2ncccc21` (single isomer, unassigned) [Compound 1027A], the IC50 [1, 9] is reported as > 5 µM and the IC50 [2, 10] is reported as > 5 µM.
An IC50 [1, 3] of 1 to 5 µM and an IC50 [2, 4] of 1 to 5 µM were found for `CN(c1cccc(C2(C)C3=C(CC(C)(C)CC3=O)Nc3ncccc32)c1)c1ncccn1` (single isomer, unassigned) [641B] in this work.
`CCC1(c2cccc(-c3ccncc3C)c2)C2=C(CC(C)(C)CC2=O)Nc2ncccc21` (single isomer, unassigned) [Compound 1020A] was tested, and the IC50 [1, 9] was 1 to 5 µM and the IC50 [2, 10] was > 5 µM.
